Measured values taken from ChEMBL document CHEMBL5653631, “A Potent and Selective ULK1 Inhibitor Suppresses Autophagy and Sensitizes Cancer Cells to Nutrient Stress” (iScience, 2018).
Blank lines part the entries; values can stand above or below the compound they belong to.

Tests used:
[1] = target: Receptor-type tyrosine-protein kinase FLT3 (Homo sapiens) (UniProt P36888); experiment: Inhibition of human recombinant FLT3 at 500 nM in presence of ATP by radiometric assay relative to control
[2] = target: Cyclin-dependent kinase 2 (Homo sapiens) (UniProt P24941); experiment: Inhibition of human recombinant CDK2 at 500 nM related to control ULK1
[3] = target: Serine/threonine-protein kinase 32C (Homo sapiens) (UniProt Q86UX6); experiment: Inhibition of human recombinant YANK3 at 500 nM in presence of ATP by radiometric assay relative to control
[4] = target: SRSF protein kinase 3 (Homo sapiens) (UniProt Q9UPE1); experiment: Inhibition of human recombinant MSSK1 at 15 nM related to control ULK1
[5] = target: T1, Testis-specific serine/threonine-protein kinase 3 (Homo sapiens) (UniProt Q96PN8); experiment: Inhibition of human recombinant TSSK3 at 15 nM in presence of ATP by radiometric assay relative to control
T1 sequence (whole entry): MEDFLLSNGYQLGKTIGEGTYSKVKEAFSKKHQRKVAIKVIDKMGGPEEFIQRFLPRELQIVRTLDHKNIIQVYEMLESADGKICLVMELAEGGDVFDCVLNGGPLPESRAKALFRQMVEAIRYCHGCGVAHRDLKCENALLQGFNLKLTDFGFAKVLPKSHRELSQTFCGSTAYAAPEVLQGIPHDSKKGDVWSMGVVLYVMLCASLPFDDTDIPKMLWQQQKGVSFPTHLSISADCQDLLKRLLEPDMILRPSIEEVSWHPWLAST

[6] = target: MAP/microtubule affinity-regulating kinase 3 (Homo sapiens) (UniProt P27448); experiment: Inhibition of human recombinant MARK3 at 40 nM in presence of ATP by radiometric assay relative to control
[7] = target: T2, Ephrin type-A receptor 1 (Homo sapiens) (UniProt P21709); experiment: Inhibition of human recombinant EphA1 at 40 nM related to control ULK1
T2 sequence (whole entry): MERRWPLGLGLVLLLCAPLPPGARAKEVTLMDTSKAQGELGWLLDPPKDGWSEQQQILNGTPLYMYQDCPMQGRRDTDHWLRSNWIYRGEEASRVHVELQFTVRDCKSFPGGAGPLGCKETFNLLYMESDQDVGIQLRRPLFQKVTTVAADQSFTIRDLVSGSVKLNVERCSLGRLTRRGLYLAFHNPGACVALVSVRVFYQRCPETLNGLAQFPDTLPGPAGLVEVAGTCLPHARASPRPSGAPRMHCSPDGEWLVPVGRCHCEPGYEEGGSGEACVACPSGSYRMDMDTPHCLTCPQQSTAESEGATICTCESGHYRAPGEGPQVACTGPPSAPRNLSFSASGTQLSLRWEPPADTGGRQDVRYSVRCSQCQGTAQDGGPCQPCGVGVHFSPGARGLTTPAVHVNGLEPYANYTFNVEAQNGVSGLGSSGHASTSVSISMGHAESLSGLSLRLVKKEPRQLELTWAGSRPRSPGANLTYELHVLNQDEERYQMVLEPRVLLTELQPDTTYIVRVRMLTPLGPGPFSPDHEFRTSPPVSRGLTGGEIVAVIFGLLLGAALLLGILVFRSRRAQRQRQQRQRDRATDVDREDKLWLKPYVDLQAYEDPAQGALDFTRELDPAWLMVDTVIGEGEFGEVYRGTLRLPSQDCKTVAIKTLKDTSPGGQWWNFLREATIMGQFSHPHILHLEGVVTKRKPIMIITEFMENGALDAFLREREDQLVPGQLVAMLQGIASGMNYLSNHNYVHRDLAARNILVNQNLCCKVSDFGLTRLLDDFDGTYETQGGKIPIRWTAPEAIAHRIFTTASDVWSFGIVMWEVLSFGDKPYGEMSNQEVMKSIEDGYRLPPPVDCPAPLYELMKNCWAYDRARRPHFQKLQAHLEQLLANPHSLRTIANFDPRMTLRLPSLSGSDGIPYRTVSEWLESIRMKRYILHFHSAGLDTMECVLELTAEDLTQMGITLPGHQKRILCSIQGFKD

[8] = target: Death-associated protein kinase 1 (Homo sapiens) (UniProt P53355); experiment: Inhibition of human recombinant DAPK1 at 40 nM related to control ULK1
[9] = target: Tyrosine-protein kinase Fyn (Homo sapiens) (UniProt P06241); experiment: Inhibition of human recombinant FYN at 40 nM in presence of ATP by radiometric assay relative to control
[10] = target: T3, Inhibitor of nuclear factor kappa-B kinase subunit epsilon (Homo sapiens) (UniProt Q14164); experiment: Inhibition of human recombinant IKKe at 40 nM in presence of ATP by radiometric assay relative to control
T3 sequence (whole entry): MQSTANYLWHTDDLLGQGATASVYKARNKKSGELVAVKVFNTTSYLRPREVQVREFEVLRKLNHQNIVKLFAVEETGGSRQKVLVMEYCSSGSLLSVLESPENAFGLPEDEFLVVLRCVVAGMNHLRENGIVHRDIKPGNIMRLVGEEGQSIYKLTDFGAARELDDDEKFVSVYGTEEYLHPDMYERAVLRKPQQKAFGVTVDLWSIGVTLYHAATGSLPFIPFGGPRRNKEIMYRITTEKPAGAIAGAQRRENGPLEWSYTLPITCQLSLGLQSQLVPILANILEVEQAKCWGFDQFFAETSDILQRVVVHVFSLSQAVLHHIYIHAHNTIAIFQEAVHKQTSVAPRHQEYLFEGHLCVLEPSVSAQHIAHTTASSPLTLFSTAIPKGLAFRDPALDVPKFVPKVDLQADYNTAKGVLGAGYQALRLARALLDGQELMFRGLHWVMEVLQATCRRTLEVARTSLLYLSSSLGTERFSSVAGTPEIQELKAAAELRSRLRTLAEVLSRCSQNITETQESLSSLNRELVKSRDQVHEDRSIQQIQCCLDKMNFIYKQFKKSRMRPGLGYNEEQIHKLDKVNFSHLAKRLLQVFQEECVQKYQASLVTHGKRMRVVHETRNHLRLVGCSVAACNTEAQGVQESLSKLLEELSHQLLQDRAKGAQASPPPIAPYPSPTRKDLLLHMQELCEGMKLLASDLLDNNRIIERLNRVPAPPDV

Chain of Receptor-type tyrosine-protein kinase FLT3 (Homo sapiens) (P36888 whole entry): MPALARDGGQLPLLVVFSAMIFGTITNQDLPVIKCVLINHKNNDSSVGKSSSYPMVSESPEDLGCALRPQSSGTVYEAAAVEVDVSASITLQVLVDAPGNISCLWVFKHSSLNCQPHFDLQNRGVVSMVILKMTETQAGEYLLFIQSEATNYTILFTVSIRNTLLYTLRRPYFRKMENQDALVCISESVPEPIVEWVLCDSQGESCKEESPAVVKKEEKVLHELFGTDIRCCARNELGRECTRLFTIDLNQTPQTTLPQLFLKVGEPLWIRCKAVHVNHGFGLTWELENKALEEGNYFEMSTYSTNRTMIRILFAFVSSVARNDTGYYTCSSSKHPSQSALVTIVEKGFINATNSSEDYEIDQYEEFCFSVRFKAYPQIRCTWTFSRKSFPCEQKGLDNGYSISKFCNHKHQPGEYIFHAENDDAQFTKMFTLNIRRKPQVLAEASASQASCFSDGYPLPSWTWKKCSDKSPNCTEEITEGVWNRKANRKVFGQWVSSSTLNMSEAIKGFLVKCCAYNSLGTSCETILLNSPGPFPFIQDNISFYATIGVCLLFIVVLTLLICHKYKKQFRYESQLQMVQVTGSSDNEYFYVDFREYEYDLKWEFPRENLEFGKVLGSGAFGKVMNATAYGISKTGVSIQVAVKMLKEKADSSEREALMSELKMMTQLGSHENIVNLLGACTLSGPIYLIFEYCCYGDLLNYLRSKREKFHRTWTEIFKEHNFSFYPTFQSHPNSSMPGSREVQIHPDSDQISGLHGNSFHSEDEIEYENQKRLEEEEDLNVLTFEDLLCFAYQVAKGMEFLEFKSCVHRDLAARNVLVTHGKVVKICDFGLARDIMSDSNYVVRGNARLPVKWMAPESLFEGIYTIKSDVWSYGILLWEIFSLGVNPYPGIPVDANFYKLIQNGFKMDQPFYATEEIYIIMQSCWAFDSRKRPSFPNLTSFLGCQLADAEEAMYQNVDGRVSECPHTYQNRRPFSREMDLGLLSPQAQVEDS
Chain of Tyrosine-protein kinase Fyn (Homo sapiens) (P06241 2-537 limits assumed): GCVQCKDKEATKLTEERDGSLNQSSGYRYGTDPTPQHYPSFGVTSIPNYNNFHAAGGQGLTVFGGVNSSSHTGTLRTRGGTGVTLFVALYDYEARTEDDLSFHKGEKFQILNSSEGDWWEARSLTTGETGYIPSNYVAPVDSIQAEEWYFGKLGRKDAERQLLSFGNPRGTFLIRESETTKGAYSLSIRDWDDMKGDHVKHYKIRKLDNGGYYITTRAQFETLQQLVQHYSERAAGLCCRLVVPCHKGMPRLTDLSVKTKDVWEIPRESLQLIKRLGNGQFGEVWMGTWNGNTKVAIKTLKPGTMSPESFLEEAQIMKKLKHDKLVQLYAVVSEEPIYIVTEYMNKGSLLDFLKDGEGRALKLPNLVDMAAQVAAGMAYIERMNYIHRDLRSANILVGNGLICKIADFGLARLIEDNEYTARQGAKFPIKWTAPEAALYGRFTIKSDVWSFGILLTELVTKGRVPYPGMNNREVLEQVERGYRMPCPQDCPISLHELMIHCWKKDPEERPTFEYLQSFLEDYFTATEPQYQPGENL
Chain of Death-associated protein kinase 1 (Homo sapiens) (P53355 whole entry, looked up): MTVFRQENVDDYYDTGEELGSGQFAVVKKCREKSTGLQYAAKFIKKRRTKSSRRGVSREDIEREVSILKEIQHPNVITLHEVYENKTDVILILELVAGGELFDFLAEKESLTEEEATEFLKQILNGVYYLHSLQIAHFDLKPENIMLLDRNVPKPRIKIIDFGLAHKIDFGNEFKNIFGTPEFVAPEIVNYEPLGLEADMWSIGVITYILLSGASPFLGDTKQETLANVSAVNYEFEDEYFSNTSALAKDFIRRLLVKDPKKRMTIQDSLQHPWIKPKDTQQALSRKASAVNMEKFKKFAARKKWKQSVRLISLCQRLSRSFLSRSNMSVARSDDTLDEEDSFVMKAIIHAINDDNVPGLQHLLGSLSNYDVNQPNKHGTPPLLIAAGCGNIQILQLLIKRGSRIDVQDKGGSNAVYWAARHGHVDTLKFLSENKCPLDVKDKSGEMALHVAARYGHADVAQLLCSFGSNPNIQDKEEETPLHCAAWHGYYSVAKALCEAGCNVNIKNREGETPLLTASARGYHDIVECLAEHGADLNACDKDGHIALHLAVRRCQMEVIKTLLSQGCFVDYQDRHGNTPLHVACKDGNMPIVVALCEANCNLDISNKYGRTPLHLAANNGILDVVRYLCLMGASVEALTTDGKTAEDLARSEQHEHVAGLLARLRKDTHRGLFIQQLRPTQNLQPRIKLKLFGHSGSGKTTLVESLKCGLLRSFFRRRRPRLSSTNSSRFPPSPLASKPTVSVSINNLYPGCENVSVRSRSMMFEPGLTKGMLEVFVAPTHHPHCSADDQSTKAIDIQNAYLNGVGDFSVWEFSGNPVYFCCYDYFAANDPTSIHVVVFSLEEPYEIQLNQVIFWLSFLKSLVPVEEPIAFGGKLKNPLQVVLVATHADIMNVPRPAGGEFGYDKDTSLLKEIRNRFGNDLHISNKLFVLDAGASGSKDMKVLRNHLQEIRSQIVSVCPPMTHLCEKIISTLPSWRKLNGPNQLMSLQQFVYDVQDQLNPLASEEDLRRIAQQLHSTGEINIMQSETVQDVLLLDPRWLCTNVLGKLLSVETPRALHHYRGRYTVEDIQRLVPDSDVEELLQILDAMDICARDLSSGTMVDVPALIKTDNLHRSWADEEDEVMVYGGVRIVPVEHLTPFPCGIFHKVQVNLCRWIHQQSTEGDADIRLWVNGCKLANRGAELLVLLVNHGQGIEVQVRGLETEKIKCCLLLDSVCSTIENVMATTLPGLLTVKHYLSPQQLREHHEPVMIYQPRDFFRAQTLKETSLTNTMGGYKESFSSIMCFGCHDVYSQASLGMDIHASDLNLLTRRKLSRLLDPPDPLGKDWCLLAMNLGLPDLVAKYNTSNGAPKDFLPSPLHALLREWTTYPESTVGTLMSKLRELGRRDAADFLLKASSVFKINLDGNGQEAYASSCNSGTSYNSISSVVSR
Chain of SRSF protein kinase 3 (Homo sapiens) (Q9UPE1 whole entry): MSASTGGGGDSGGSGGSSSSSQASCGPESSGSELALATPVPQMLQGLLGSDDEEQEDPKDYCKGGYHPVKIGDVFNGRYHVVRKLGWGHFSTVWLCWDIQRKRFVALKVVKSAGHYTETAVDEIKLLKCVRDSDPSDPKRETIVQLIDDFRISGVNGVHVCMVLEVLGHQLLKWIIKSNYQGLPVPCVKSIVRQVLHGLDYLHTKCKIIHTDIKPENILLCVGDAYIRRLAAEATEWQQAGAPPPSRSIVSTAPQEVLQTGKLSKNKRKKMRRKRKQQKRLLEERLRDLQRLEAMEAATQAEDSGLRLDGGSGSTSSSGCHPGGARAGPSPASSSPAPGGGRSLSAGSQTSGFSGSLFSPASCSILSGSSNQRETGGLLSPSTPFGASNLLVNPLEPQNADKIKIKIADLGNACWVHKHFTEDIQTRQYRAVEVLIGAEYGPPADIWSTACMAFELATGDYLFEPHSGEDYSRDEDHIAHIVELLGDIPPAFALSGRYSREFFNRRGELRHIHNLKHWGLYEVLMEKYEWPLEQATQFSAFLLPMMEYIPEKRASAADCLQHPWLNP
Chain of MAP/microtubule affinity-regulating kinase 3 (Homo sapiens) (P27448 whole entry, looked up): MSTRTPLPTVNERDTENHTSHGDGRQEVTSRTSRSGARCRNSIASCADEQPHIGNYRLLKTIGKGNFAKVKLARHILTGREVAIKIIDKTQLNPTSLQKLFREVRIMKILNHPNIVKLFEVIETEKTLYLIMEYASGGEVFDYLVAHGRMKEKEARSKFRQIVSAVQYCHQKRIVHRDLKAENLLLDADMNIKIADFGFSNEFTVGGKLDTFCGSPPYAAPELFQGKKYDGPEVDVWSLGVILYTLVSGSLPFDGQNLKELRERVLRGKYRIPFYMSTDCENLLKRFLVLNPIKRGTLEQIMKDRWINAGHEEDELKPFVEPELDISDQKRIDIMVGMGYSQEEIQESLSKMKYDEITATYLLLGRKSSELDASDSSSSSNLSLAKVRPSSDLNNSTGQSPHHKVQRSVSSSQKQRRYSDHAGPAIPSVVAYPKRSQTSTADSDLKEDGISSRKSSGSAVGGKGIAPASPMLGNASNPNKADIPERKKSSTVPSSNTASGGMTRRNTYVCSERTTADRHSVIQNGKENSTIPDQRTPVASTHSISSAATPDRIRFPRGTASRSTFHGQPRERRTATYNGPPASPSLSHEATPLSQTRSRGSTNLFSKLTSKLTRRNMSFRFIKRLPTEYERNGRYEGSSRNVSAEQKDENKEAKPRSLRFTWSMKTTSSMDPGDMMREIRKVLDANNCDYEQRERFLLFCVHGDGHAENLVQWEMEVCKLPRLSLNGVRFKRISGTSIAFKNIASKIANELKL
Chain of Serine/threonine-protein kinase 32C (Homo sapiens) (Q86UX6 whole entry): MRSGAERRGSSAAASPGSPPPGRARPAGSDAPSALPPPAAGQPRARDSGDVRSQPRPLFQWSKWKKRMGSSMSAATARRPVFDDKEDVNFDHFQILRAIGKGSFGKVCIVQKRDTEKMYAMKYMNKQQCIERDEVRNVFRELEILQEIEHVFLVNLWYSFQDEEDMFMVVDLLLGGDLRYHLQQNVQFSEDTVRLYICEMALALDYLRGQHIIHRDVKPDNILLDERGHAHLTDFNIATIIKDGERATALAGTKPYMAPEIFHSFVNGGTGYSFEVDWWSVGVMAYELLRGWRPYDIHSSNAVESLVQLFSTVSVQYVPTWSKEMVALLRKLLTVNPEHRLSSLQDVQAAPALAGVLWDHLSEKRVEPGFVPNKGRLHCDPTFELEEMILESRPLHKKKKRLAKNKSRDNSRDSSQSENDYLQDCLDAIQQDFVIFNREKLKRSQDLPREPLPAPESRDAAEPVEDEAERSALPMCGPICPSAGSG

inhibition [1]: 57%
fold change (FC) [2]: 0.05
inhibition [3]: 0%
SMILES: CNC(=O)c1ccccc1Oc1nc(Nc2cc(OC)c(OC)c(OC)c2)ncc1Br

fold change (FC) [4]: 0
inhibition [5]: 14%
SMILES: CC(C)[C@H](NC(=O)c1cc(-c2cnn3cc(-c4ccc(OCCN5CCCCC5)cc4)cnc23)cs1)C(F)(F)F

inhibition [6]: 15%
fold change (FC) [7]: 0
inhibition [9]: 0%
inhibition [10]: 30%
SMILES: O=C(N[C@@H](C1CC1)C(F)(F)F)c1cc(-c2cnn3cc(-c4ccc(F)cc4)cnc23)cs1
fold change (FC) [8]: 0
